This is an account of results in ChEMBL document CHEMBL2331100, “Inhibition pattern of sulfamide-related compounds in binding to carbonic anhydrase isoforms I, II, VII, XII and XIV” (Bioorg Med Chem, 2013).

pKi: −log10 of the molar value.

One assay deals with Carbonic anhydrase 14 (Homo sapiens, UniProt Q9ULX7). The assay can be described thus: Inhibition of human carbonic anhydrase 14 preincubated for 15 mins by CO2 hydration stopped-flow assay.
Another assay deals with Carbonic anhydrase 12 (Homo sapiens, UniProt O43570). Briefly: Inhibition of human carbonic anhydrase 12 preincubated for 15 mins by CO2 hydration stopped-flow assay.
Chain of Carbonic anhydrase 12 (O43570 whole entry): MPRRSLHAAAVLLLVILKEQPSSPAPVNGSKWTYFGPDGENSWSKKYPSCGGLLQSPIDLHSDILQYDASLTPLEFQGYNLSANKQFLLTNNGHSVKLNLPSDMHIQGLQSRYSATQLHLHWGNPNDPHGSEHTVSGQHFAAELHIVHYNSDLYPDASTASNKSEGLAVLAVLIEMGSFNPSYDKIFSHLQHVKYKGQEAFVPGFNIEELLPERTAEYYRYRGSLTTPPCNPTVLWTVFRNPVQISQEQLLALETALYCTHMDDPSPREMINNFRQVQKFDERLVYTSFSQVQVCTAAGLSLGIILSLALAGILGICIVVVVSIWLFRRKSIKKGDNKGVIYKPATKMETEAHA
The next assay has as its target Carbonic anhydrase 7 (Homo sapiens, UniProt P43166). The assay can be described thus: Inhibition of human carbonic anhydrase 7 preincubated for 15 mins by CO2 hydration stopped-flow assay.
The target in the next assay is Carbonic anhydrase 2 (Homo sapiens, UniProt P00918). Briefly: Inhibition of human carbonic anhydrase 2 preincubated for 15 mins by CO2 hydration stopped-flow assay.
The target in a further assay is Carbonic anhydrase 1 (Homo sapiens, UniProt P00915). Briefly: Inhibition of human carbonic anhydrase 1 preincubated for 15 mins by CO2 hydration stopped-flow assay.
Chain of Carbonic anhydrase 1 (P00915 whole entry): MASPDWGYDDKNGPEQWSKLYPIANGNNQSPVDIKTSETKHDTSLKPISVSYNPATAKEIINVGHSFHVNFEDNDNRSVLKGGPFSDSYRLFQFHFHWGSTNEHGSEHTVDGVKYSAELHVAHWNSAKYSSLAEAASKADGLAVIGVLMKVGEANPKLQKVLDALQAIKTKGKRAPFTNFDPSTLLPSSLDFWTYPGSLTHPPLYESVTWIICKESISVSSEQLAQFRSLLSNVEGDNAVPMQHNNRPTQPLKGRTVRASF

Chain of Carbonic anhydrase 14 (Q9ULX7 whole entry): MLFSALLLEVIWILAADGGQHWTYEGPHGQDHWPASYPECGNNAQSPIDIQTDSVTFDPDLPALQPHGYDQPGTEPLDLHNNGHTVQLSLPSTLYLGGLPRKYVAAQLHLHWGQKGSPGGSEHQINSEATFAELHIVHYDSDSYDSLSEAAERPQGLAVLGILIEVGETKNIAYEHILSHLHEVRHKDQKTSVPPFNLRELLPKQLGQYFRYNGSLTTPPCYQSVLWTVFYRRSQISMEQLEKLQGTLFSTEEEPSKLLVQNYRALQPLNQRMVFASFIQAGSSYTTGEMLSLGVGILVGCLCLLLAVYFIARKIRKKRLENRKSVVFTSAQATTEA
Chain of Carbonic anhydrase 7 (P43166 whole entry): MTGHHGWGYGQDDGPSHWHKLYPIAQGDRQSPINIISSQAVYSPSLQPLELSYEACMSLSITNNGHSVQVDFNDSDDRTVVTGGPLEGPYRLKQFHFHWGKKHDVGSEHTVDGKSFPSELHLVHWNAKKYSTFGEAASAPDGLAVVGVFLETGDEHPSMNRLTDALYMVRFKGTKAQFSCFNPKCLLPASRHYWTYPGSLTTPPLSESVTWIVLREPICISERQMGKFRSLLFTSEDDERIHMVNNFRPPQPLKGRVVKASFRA

With `CCCCNS(=O)(=O)NCCCC` [BUTYL(BUTYLSULFAMOYL)AMINE], the negative logarithm of the Ki (pKi) is 5.01 on Carbonic anhydrase 14; 6.16 on Carbonic anhydrase 12; 6.39 on Carbonic anhydrase 7; 4.18 at Carbonic anhydrase 2; 5.18 on Carbonic anhydrase 1.
Take `CCCN(CCC)S(N)(=O)=O`: the pKi was 5.15 at Carbonic anhydrase 14; 5.45 on Carbonic anhydrase 12; below 3.70 at Carbonic anhydrase 7; 4.22 at Carbonic anhydrase 2; 4.60 at Carbonic anhydrase 1.
As for `CCCCNS(=O)(=O)NCCC(=O)OC`, the pKi was 5.08 at Carbonic anhydrase 14; 4.21 on Carbonic anhydrase 12; below 3.70 on Carbonic anhydrase 7; below 3.70 at Carbonic anhydrase 2; below 3.70 at Carbonic anhydrase 1.
As to `CCCN(CCC)S(=O)(=O)N(CCC)CCC`, the negative logarithm of the Ki (pKi) at Carbonic anhydrase 12 was below 3.70; on Carbonic anhydrase 7, below 3.70; at Carbonic anhydrase 2 it was below 3.70; on Carbonic anhydrase 1 it was 5.03.
For the molecule `O=S(=O)(NCc1ccccc1)NCc1ccccc1` [BENZYL(BENZYLSULFAMOYL)AMINE], the pKi at Carbonic anhydrase 12 is 4.09; at Carbonic anhydrase 7, 6.42; at Carbonic anhydrase 2, 6.19; at Carbonic anhydrase 1, below 3.70.
`CCCC(CCC)COS(N)(=O)=O`: the negative-log Ki (pKi) was 6.05 on Carbonic anhydrase 12, 5.37 on Carbonic anhydrase 7, 5.72 on Carbonic anhydrase 2 and 5.53 at Carbonic anhydrase 1.
The corresponding values for `COC(=O)[C@@H](NS(=O)(=O)N[C@H](C(=O)OC)C(C)C)C(C)C` are 4.14, below 3.70, below 3.70 and below 3.70.
As for `O=S(=O)(NCCc1ccccc1)NCCc1ccccc1`, the negative-log Ki (pKi) on Carbonic anhydrase 14, at Carbonic anhydrase 12, at Carbonic anhydrase 7, on Carbonic anhydrase 2 and at Carbonic anhydrase 1 was below 3.70 throughout.
For the molecule `O=S(=O)(NC1CC1)NC1CC1`, the pKi at Carbonic anhydrase 14 was 5.06; on Carbonic anhydrase 12, 6.11; on Carbonic anhydrase 7, 6.80; at Carbonic anhydrase 2, below 3.70; at Carbonic anhydrase 1, below 3.70.
Take `COC(=O)[C@H](C)NS(=O)(=O)N[C@@H](C)C(=O)OC`: the negative logarithm of the Ki (pKi) on Carbonic anhydrase 14 is 5.12; on Carbonic anhydrase 12 it was below 3.70; on Carbonic anhydrase 7, below 3.70; at Carbonic anhydrase 2, below 3.70; at Carbonic anhydrase 1, below 3.70.
In the case of `CCCCN(CCCC)S(=O)(=O)N(CCCC)CCCC`, the pKi at Carbonic anhydrase 14, on Carbonic anhydrase 12, on Carbonic anhydrase 7, on Carbonic anhydrase 2 and on Carbonic anhydrase 1 was below 3.70 throughout.
Take `COC(=O)CCNS(=O)(=O)NCCC(=O)OC`: the negative-log Ki (pKi) is 4.15 at Carbonic anhydrase 12, below 3.70 at Carbonic anhydrase 7, below 3.70 on Carbonic anhydrase 2 and below 3.70 on Carbonic anhydrase 1.
For `CC(C)(C)OC(=O)NS(=O)(=O)NCc1ccccc1`, the pKi on Carbonic anhydrase 14 is 4.39; at Carbonic anhydrase 12, 6.05; on Carbonic anhydrase 7, 6.77; on Carbonic anhydrase 2 it was 3.79; on Carbonic anhydrase 1, 5.05.
Regarding `CCCN(CCC)S(=O)(=O)NC(=O)OC(C)(C)C`, the negative-log Ki (pKi) on Carbonic anhydrase 12 was 6.04; at Carbonic anhydrase 7, 6.49; on Carbonic anhydrase 2, below 3.70; at Carbonic anhydrase 1, 5.16.
Turning to `COC(=O)CNS(=O)(=O)NC(=O)OC(C)(C)C`, the pKi was 5.23 on Carbonic anhydrase 14; 4.25 on Carbonic anhydrase 12; below 3.70 at Carbonic anhydrase 7; 4.25 at Carbonic anhydrase 2; below 3.70 on Carbonic anhydrase 1.
With `CCCC(CCC)CN(C(=O)OC(C)(C)C)S(=O)(=O)NCCC(=O)OC`, the pKi on Carbonic anhydrase 14 is 5.09; on Carbonic anhydrase 12, 4.18; at Carbonic anhydrase 7, below 3.70; at Carbonic anhydrase 2, 4.39; at Carbonic anhydrase 1, 4.21.
On to `O=S(=O)(NC1CCCCC1)NC1CCCCC1`, for which the negative-log Ki (pKi) at Carbonic anhydrase 14 is 5.00; at Carbonic anhydrase 12 it was 6.15; at Carbonic anhydrase 7, 6.49; on Carbonic anhydrase 2 it was 4.00; at Carbonic anhydrase 1, 5.18.
In the case of `COC(=O)[C@H](C)NS(=O)(=O)NC(=O)OC(C)(C)C`, the pKi at Carbonic anhydrase 14 is 5.27; on Carbonic anhydrase 12 it was 4.26; at Carbonic anhydrase 7, below 3.70; at Carbonic anhydrase 2, below 3.70; at Carbonic anhydrase 1, below 3.70.
As for `CCCNS(=O)(=O)NCCC`, the negative logarithm of the Ki (pKi) is below 3.70 on Carbonic anhydrase 14; below 3.70 on Carbonic anhydrase 12; below 3.70 on Carbonic anhydrase 7; 3.91 on Carbonic anhydrase 2; 5.33 at Carbonic anhydrase 1.
`O=S(=O)(N1CCOCC1)N1CCOCC1`: the pKi was 4.31 at Carbonic anhydrase 14; 5.04 at Carbonic anhydrase 12; 6.33 on Carbonic anhydrase 7; 3.87 on Carbonic anhydrase 2; below 3.70 on Carbonic anhydrase 1.
On to `COC(=O)CCNS(=O)(=O)Oc1ccccc1O`, for which the pKi on Carbonic anhydrase 14 is 5.07; at Carbonic anhydrase 12 it was 4.19; on Carbonic anhydrase 7, 4.16; on Carbonic anhydrase 2, below 3.70; at Carbonic anhydrase 1, 4.05.
Take `CCCCCCOS(N)(=O)=O` [HEXYL SULFAMATE]: the pKi at Carbonic anhydrase 14 is 6.09; at Carbonic anhydrase 12 it was 6.14; at Carbonic anhydrase 7, 6.15; at Carbonic anhydrase 2, 5.55; at Carbonic anhydrase 1, 5.44.
For the molecule `NS(=O)(=O)NCc1ccccc1`, the negative logarithm of the Ki (pKi) was 6.08 at Carbonic anhydrase 14; 6.03 on Carbonic anhydrase 12; 6.52 on Carbonic anhydrase 7; 6.92 on Carbonic anhydrase 2; 6.89 on Carbonic anhydrase 1.
